Test results as given in PubChem BioAssay AID330 (DTP/NCI, 2004).
Inconclusive results and toxic doses are left out. Rule for the calls: active = survival T/C of 150% or more; inactive = T/C below 125% in these data.

Test system: P388 leukemia ip, CD2F1 mice, survival T/C
Test: NCI In Vivo Anticancer Drug Screen. Data for tumor model P388 Leukemia (intraperitoneal) in CD2F1 (CDF1) mice
Settings: endpoint: median survival time, higher = longer survival
How it was run: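 Mice carrying the transplanted tumor received test compound or vehicle. Survival was recorded in each group, and the value is the treated-group measurement divided by that of the vehicle-treated control group.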

[1] = dose: 50.0 mg/kg/injection, schedule: Q01DX009 (ip), vehicle: Klucel (hydroxypropylcellulose) (HPC)
[2] = dose: 100.0 mg/kg/injection, schedule: Q01DX009 (ip), vehicle: Klucel (hydroxypropylcellulose) (HPC)
[3] = dose: 200.0 mg/kg/injection, schedule: Q01DX009 (ip), vehicle: Klucel (hydroxypropylcellulose) (HPC)
[4] = dose: 50.0 mg/kg/injection, schedule: Q01DX005 (ip), vehicle: Klucel (hydroxypropylcellulose) (HPC)
[5] = dose: 100.0 mg/kg/injection, schedule: Q01DX005 (ip), vehicle: Klucel (hydroxypropylcellulose) (HPC)
[6] = dose: 200.0 mg/kg/injection, schedule: Q01DX005 (ip), vehicle: Klucel (hydroxypropylcellulose) (HPC)

Measured: T/C

C#CC(CC)(CC)N1CC(OC(=O)NCC=C)C1
inactive: [1] 100 % of control | [2] 97 % of control | [3] 95 % of control

CNC(C)C(O)c1ccccc1 (stereo unspecified)
inactive: dose: 50.0 mg/kg/injection, schedule: Q04DX003 (ip), vehicle: saline with Tween-80 95 % of control | dose: 100.0 mg/kg/injection, schedule: Q04DX003 (ip), vehicle: saline with Tween-80 95 % of control | dose: 200.0 mg/kg/injection, schedule: Q04DX003 (ip), vehicle: saline with Tween-80 100 % of control

Cc1ccccc1N=Nc1ccc(N=Nc2ccc(N)nc2N)c(C)c1
inactive: dose: 50.0 mg/kg/injection, schedule: Q01DX005 (ip), vehicle: saline with Tween-80 104 % of control | dose: 100.0 mg/kg/injection, schedule: Q01DX005 (ip), vehicle: saline with Tween-80 110 % of control | dose: 200.0 mg/kg/injection, schedule: Q01DX005 (ip), vehicle: saline with Tween-80 99 % of control

C/C(=N\NC(=O)c1cc(C)nc2ccc(Br)cc12)c1ccccc1O
inactive: dose: 50.0 mg/kg/injection, schedule: Q01DX009 (ip), vehicle: saline with Tween-80 88 % of control | dose: 100.0 mg/kg/injection, schedule: Q01DX009 (ip), vehicle: saline with Tween-80 94 % of control | dose: 200.0 mg/kg/injection, schedule: Q01DX009 (ip), vehicle: saline with Tween-80 110 % of control

COC(=O)/C=C1\C(=O)OC(C)(C)C1(C)C
inactive: [1] 111 % of control | [2] 100 % of control | [3] 103 % of control

COc1cccc(C2OC3=C(Nc4ccc(Cl)cc4N3)C2=O)c1 (stereo unspecified)
inactive: [4] 93 % of control | [5] 104 % of control | [6] 90 % of control

O=c1[nH]cnc2nc(Cl)[nH]c12
inactive: [4] 98 % of control | [5] 98 % of control | [6] 95 % of control

Nc1cc2ccncc2c2ccccc12
inactive: dose: 50.0 mg/kg/injection, schedule: Q04DX003 (ip), vehicle: saline sonified 100 % of control | dose: 100.0 mg/kg/injection, schedule: Q04DX003 (ip), vehicle: saline sonified 90 % of control | dose: 200.0 mg/kg/injection, schedule: Q04DX003 (ip), vehicle: saline sonified 95 % of control

COc1cc(Cc2n[nH]c(=S)n2-c2ccccc2)c(S(=O)(=O)N2CCOCC2)cc1OC
inactive: dose: 60.0 mg/kg/injection, schedule: Q01DX005 (ip), vehicle: saline 102 % of control | dose: 120.0 mg/kg/injection, schedule: Q01DX005 (ip), vehicle: saline 95 % of control | dose: 240.0 mg/kg/injection, schedule: Q01DX005 (ip), vehicle: saline 95 % of control

COC(C(=O)C(OC(C)=O)C(C)OC(C)=O)C1Cc2cc3cc(OC4CC(OC5CC(OC(C)=O)C(OC(C)=O)C(C)O5)C(OC(C)=O)C(C)O4)c(C)c(OC(C)=O)c3c(OC(C)=O)c2C(=O)C1OC1CC(OC2CC(OC(C)=O)C(OC3CC(C)(OC(C)=O)C(OC(C)=O)C(C)O3)C(C)O2)C(OC(C)=O)C(C)O1 (stereo unspecified)
inactive: dose: 0.13 mg/kg/injection, schedule: Q01DX009 (ip), vehicle: water 98 % of control | dose: 0.25 mg/kg/injection, schedule: Q01DX009 (ip), vehicle: water 99 % of control | dose: 0.5 mg/kg/injection, schedule: Q01DX009 (ip), vehicle: water 105 % of control | dose: 1.0 mg/kg/injection, schedule: Q01DX009 (ip), vehicle: water 105 % of control | dose: 2.0 mg/kg/injection, schedule: Q01DX009 (ip), vehicle: water 107 % of control | dose: 4.0 mg/kg/injection, schedule: Q01DX009 (ip), vehicle: water 111 % of control | dose: 8.0 mg/kg/injection, schedule: Q01DX009 (ip), vehicle: water 114 % of control | dose: 11.5 mg/kg/injection, schedule: Q01DX009 (ip), vehicle: water 106 % of control | dose: 23.0 mg/kg/injection, schedule: Q01DX009 (ip), vehicle: water 108 % of control | dose: 46.0 mg/kg/injection, schedule: Q01DX009 (ip), vehicle: water 115 % of control

CC(C)[CH2][Sn]1([CH2]C(C)C)[O]CCNCC[O]1
inactive: dose: 0.78 mg/kg/injection, schedule: Q01DX009 (ip), vehicle: saline 105 % of control | dose: 1.56 mg/kg/injection, schedule: Q01DX009 (ip), vehicle: saline 109 % of control | dose: 3.12 mg/kg/injection, schedule: Q01DX009 (ip), vehicle: saline 88 % of control

CCc1cccc2c(NCCCCCCCCNc3c4ccccc4nc4c(CC)cccc34)c3ccccc3nc12
inactive: dose: 0.63 mg/kg/injection, schedule: Q01DX005 (ip), vehicle: other 110 % of control | dose: 1.25 mg/kg/injection, schedule: Q01DX005 (ip), vehicle: other 110 % of control | dose: 2.5 mg/kg/injection, schedule: Q01DX005 (ip), vehicle: other 122 % of control | dose: 3.75 mg/kg/injection, schedule: Q01DX005 (ip), vehicle: other 104 % of control | dose: 5.0 mg/kg/injection, schedule: Q01DX005 (ip), vehicle: other 113 % of control | dose: 7.5 mg/kg/injection, schedule: Q01DX005 (ip), vehicle: other 118 % of control | dose: 10.0 mg/kg/injection, schedule: Q## X009 (ip), vehicle: lactic acid 110 % of control

CCOC(=O)/C(C#N)=C/N1CCCC1
inactive: dose: 6.25 mg/kg/injection, schedule: Q01DX005 (ip), vehicle: saline with Tween-80 107 % of control | dose: 12.5 mg/kg/injection, schedule: Q01DX005 (ip), vehicle: saline with Tween-80 96 % of control | dose: 25.0 mg/kg/injection, schedule: Q01DX005 (ip), vehicle: saline with Tween-80 104 % of control

Nc1nc(-c2ccccc2)c(CC(=O)O)c(-c2nc(N)nc(-c3ccccc3)c2CC(=O)O)n1
inactive: dose: 60.0 mg/kg/injection, schedule: Q01DX005 (ip), vehicle: saline with Tween-80 100 % of control | dose: 120.0 mg/kg/injection, schedule: Q01DX005 (ip), vehicle: saline with Tween-80 100 % of control | dose: 240.0 mg/kg/injection, schedule: Q01DX005 (ip), vehicle: saline with Tween-80 86 % of control

O=C1C2=C(Nc3cc(Cl)ccc3N2)OC1c1ccccc1Cl (stereo unspecified)
inactive: dose: 60.0 mg/kg/injection, schedule: Q01DX005 (ip), vehicle: Klucel (hydroxypropylcellulose) (HPC) 95 % of control | dose: 120.0 mg/kg/injection, schedule: Q01DX005 (ip), vehicle: Klucel (hydroxypropylcellulose) (HPC) 94 % of control | dose: 240.0 mg/kg/injection, schedule: Q01DX005 (ip), vehicle: Klucel (hydroxypropylcellulose) (HPC) 104 % of control

Nc1ccn(C2OC(C(OC3OC(CO)C(O)C(N)C3O)C(O)C(O)C(O)C(O)CO)C(N)C(O)C2O)c(=O)n1 (stereo unspecified)
inactive: dose: 0.1 mg/kg/injection, schedule: Q01DX005 (ip), vehicle: saline 100 % of control | dose: 0.2 mg/kg/injection, schedule: Q01DX005 (ip), vehicle: saline 102 % of control | dose: 0.4 mg/kg/injection, schedule: Q01DX005 (ip), vehicle: saline 107 % of control | dose: 0.8 mg/kg/injection, schedule: Q01DX005 (ip), vehicle: saline 102 % of control

CCCCCCCCCCCCCCCCOc1ccccc1CNc1cc(C(F)(F)F)ccc1Cl
inactive: dose: 100.0 mg/kg/injection, schedule: Q04DX003 (ip), vehicle: other 95 % of control | dose: 200.0 mg/kg/injection, schedule: Q04DX003 (ip), vehicle: other 100 % of control | dose: 400.0 mg/kg/injection, schedule: Q04DX003 (ip), vehicle: other 90 % of control

CC(=O)/C(=C/c1ccc(OC2OC(CO)C(O)C(O)C2O)cc1)C(=O)CCN(C)C (stereo unspecified)
inactive: dose: 50.0 mg/kg/injection, schedule: Q01DX005 (ip), vehicle: saline 107 % of control | dose: 100.0 mg/kg/injection, schedule: Q01DX005 (ip), vehicle: saline 93 % of control | dose: 200.0 mg/kg/injection, schedule: Q01DX005 (ip), vehicle: saline 100 % of control
